# Several values for one entry are separate records, joined by “and”; a condition that tells them apart may be missing. Identical values can stand only once. Like-named read-outs stand apart in the source and are kept apart here.
# Key:
# Type in all cases: in vivo, pig
# [1] = test system: intrapulmonary mRNA of IL-1β, IL-6, TNF-α, COX-2, iNOS, amphiregulin, tenascin-c; test: Intrapulmonary mRNA quantification (real-time PCR, normalized to PPIA) in lung tissue of LPS-septic pigs
# Method: (§1) Following instrumentation baseline parameters were assessed at healthy state. FIG. 1 summarizes the experimental protocol: systemic inflammation was induced by continuous LPS infusion (Escherichia coli serotype O111:B4, Sigma-Aldrich, Switzerland) for one hour at 100 μg kg^−1 h^−1, followed by 10 μg kg^−1h^−1 for the entire experiment. Initial high-dose infusion was combined with a non-protective ventilation setting (Vt 25 mL kg^−1, zero PEEP, FiO2 1.0) to add a VILI component. Afterwards the ventilation mode was switched to a more lung protective setting: Vt of 8 mL kg^−1, PEEP 5 cm H2O, FiO2 of 0.4-0.5, and a variable respiratory rate to maintain a pH>7.2. The animals were monitored over six hours after sepsis induction. During the induction phase a non-participant randomized the animals into two groups and prepared the peptide solution as previously described (Hartmann E K et al, Acta anaesthesiologica Scandinavica 2013, 57(3):334-341) for blinded endotracheal inhalation.
# (§2) Group (1) animals, to which 1 mg kg^−1 of a compound of formula I of the amino acid sequence SEQ ID NO:5 was administered at zero and three hours;
# To determine intrapulmonary inflammation mRNA levels of pro-inflammatory cytokines interleukin-1β (IL-1β), interleukin-6 (IL-6), TNF-α, and enzymes prostaglandin G/H synthase-2 (COX-2) and inducible nitric oxide synthase (iNOS) were quantified. Amphiregulin and tenascin-c expression levels were examined as surrogates of mechanical stress and remodeling. Four representative samples from the left lung (upper/lower lobe, each dependent/non-dependent) were collected, snap frozen in liquid nitrogen and stored at −80° C. RNA extraction and quantification procedure by real-time polymerase chain reaction (Lightcycler 480 PCR System, Roche Applied Science, Germany) was conducted as previously described in detail.[17-19] mRNA expression data were normalized against peptidylprolyl isomerase A (PPIA) as control gene.
# (§3) Data are expressed as median and interquartile range (IQR) respectively box-plots. Intergroup comparisons were tested with the Mann-Whitney-U-Test. If multiple testing was performed, P values were adjusted by the Bonferroni correction. Intragroup time courses of repetitively measured parameters were analyzed by Friedman ANOVA on ranks and post-hoc Student-Newman-Keuls-Test. P values below 0.05 were regarded as significant. Physiological data (ventilator and hemodynamic data) as set out in Table 1 were analyzed in explorative manner only. The statistical software SigmaPlot 11.0 (Systat Inc., USA) was used.
# [2] = test system: LPS-induced lung injury; test: Post-mortem macroscopic and histopathological lung injury scoring and lung wet to dry ratio in LPS-septic pigs; conditions: for hemorrhage, histopathological score / alveolar edema, histopathological score / epithelial destruction, histopathological score / inflammatory infiltration, histopathological score / interstitial edema, histopathological score / microatelectasis, histopathological score / overdistension, histopathological score: post-mortem at 6 h, median (IQR); for hemorrhage, histopathological score: 0 to 5 points, CTRL higher, P<0.05 vs. Group (1); for alveolar edema, histopathological score / epithelial destruction, histopathological score / inflammatory infiltration, histopathological score / interstitial edema, histopathological score / microatelectasis, histopathological score / overdistension, histopathological score: severity 0 to 5 points
# Method: as §1, §2
# The lungs were removed en-bloc after thoracotomy. A macroscopic lung injury score was assessed as previously described in detail (Lim C M et al, Lung 2003, 181(1):23-34). Four ventral and dorsal segments (each upper/lower right, upper/lower left) of the lung surface were examined for hemorrhage and congestion (2 points>50%, 1 point for<50%, 0 points for no or minimal changes). The right lung was fixed in 10% buffered formalin. Representative tissue samples were paraffin embedded and cut for hematoxylin and eosin staining A blinded investigator under supervision of a senior pathologist performed the histopathological assessment. In different lung regions (non-dependent periphery and bronchial, dependent periphery and bronchial) morphological changes were rated for seven criteria (alveolar edema, interstitial edema, hemorrhage, inflammatory infiltration, epithelial damage, microatelectasis and overdistension). The severity of each parameter ranged from 0 (no occurrence) to 5 points (complete field). For every lung region we used the mean value of four non-overlapping microscopy fields. The sum of the regional scores in all lung regions adds to a maximum injury score of 140 points (7 parameters×5 maximum points per parameter from 4 lung regions). Additionally the regional distribution of each parameter was assessed in the dependent versus non-dependent lung regions. Similar scoring procedures were described previously (Spieth P M et al, Intensive Care Med 2007, 33(2):308-314; Wang H M et al, Eur Surg Res 2010, 45(3-4):121-133).The left lung was weighted immediately after removal and dried afterwards at 60° C. for 72 hours to determine the dry weight and wet to dry ratio (W/D).
# as §3
# [3] = test system: porcine model of lipopolysaccharide (LPS)-induced sepsis; conditions: for CO (cardiac output) / CVP (central venous pressure) / EVLW (extravascular lung water content) / MAP (mean arterial pressure) / MPAP (mean pulmonary arterial pressure) / NA (noradrenaline dosage required for hemodynamic stability) / PaCO2 (arterial partial pressure of carbon dioxide) / Pendinsp (end-inspiratory pressure) / RR (respiratory rate): median
# Method: Following animal care committee approval (Landesuntersuchungsamt Rheinland-Pfalz, Koblenz, Germany; approval number 23 177-07/G12-1-058) 18 juvenile pigs (weight 25-27 kg) were examined in a randomized, investigator-blinded setting.
# After sedation with intramuscular injection of ketamine (8 mg kg^−1) and midazolam (0.2 mg kg^−1) and preparation of vascular access, anesthesia was induced and maintained by intravenous propofol and fentanyl administration (8-12 mg kg^−1 h^−1/0.1-0.2 mg h^−1). A single dose of atracurium (0.5 mg kg^−1) was applied to facilitate orotracheal intubation. Ventilation (Respirator: AVEA®, CareFusion, USA) was started in pressure-controlled mode with a tidal volume of (Vt) of 8 mL kg^−1, positive end-expiratory pressure (PEEP) of 5 cmH2O, FiO2 of 0.3-0.4 and a variable respiratory rate to maintain normocapnia. A balanced saline solution (Sterofundin iso, B. Braun, Germany) was continuously infused at a rate of 10 mL kg^−1h^−1. Vascular catheters were placed ultrasound-guided in Seldinger's technique and under sterile conditions: an arterial line, a pulse contour cardiac output catheter (PiCCO, Pulsion Medical Systems, Germany) and central venous line were inserted via femoral vein access. A 7.5-French introducer for a pulmonary artery catheter was placed via the right internal jugular vein. Ventilatory and extended hemodynamic parameters were recorded continuously (Datex S/5, GE Healthcare, Germany). Body temperature was measured by a rectal probe and normothermia was maintained by body surface warming
# as §1, §2
# To maintain hemodynamic stability (mean arterial pressure >60 mmHg) additional fluid boli were administered (150 ml of balanced saline or hydroxyethyl starch once every hour). Persisting instability was treated by continuous central venous noradrenaline infusion. At the end of the experiments the animals were killed in deep general anesthesia by intravenous injection of propofol (200 mg) and potassium chloride (40 mval).
# as §3
# [4] = test system: plasma IL-6 and TNF-α; test: Plasma levels of IL-6 and TNF-α by ELISA in LPS-septic pigs; conditions: vs CTRL; repetitive inhalation; compared with the effect on pulmonary expression
# Method: as §1, with “During the induction phase a non-participant randomized the animals into two groups and prepared the peptide solution as previously described (Hartmann E K et al, Acta anaesthesiologica Scandinavica 2013, 57(3):334-341) for blinded endotracheal inhalation.” left out
# Blood gas values were obtained using a Rapidlab 248 device (Bayer Healthcare, Germany) Hematological parameters were sampled during baseline, sepsis induction and after three and six hours. Lactate plasma levels, leucocyte and platelet counts were analyzed by the Institute of Laboratory Medicine, Medical Center of the Johannes Gutenberg-University. The plasma levels of IL-6 and TNF-α were determined by quantifying enzyme linked immunosorbent assays according to the manufacturer's instructions (Porcine IL-6 Quantikine ELISA, Porcine TNF-α Quantikine ELISA, R&D Systems, Germany).
# [5] = vs CTRL, lung tissue at 6 h, 1 mg kg^−1 inhaled at zero and three hours
# [6] = 3 h, 1 mg kg^−1 inhaled at zero and three hours
# [7] = 6 h, 1 mg kg^−1 inhaled at zero and three hours
# [8] = Baseline, before LPS and inhalation
# [9] = Sepsis/VILI induction, before first inhalation
substance,measurement,setting,value
"Cyclo(4-aminobutanoic acid-GQRETPEGAEAKPWYD) (XGQRETPEGAEAKPWYD; cyclized via N-terminal 4-aminobutanoic acid to Asp side chain; cyclized compound for use in inflammation) [SEQ ID NO:5, amide bond between amino group of N-terminal 4-aminobutanoic acid and β-carboxyl side chain of C-terminal aspartic acid]",intrapulmonary inflammatory response,"[1]; at 6 hours post insult, peptide inhalation, LPS-induced lung injury in pigs",significantly reduced
same,intrapulmonary overall mRNA expression of COX-2,"[1]; vs CTRL, p=0.003, lung tissue at 6 h, 1 mg kg^−1 inhaled at zero and three hours",significantly lower
same,intrapulmonary tenascin-c expression,"[1]; vs CTRL, p=0.015, lung tissue at 6 h, 1 mg kg^−1 inhaled at zero and three hours",decreased
same,intrapulmonary overall mRNA expression of TNF-α,"[1]; vs CTRL, p=0.041, lung tissue at 6 h, 1 mg kg^−1 inhaled at zero and three hours",significantly lower
same,intrapulmonary overall mRNA expression of IL-6,"[1]; vs CTRL, p=0.043, lung tissue at 6 h, 1 mg kg^−1 inhaled at zero and three hours",significantly lower
same,intrapulmonary mRNA expression of IL-1β,[1]; [5],less differences
same,intrapulmonary mRNA expression of iNOS,[1]; [5],less differences
same,"hemorrhage, histopathological score",[2]; dependent lung regions,0.1 (0.8)
same,"alveolar edema, histopathological score",[2]; dependent lung regions,0 (0.1)
same,"epithelial destruction, histopathological score",[2]; dependent lung regions,0 (0)
same,"inflammatory infiltration, histopathological score",[2]; dependent lung regions,3.4 (1.6)
same,"interstitial edema, histopathological score",[2]; dependent lung regions,1.3 (0;8)
same,"microatelectasis, histopathological score",[2]; dependent lung regions,3.8 (2.4)
same,"overdistension, histopathological score",[2]; dependent lung regions,3.5 (1.7)
same,pulmonary wet to dry ratio (W/D),"[2]; left lung, vs CTRL Group (2), trend",higher
same,"hemorrhage, histopathological score",[2]; non-dependent lung regions,0 (0)
same,"alveolar edema, histopathological score",[2]; non-dependent lung regions,0 (0)
same,"epithelial destruction, histopathological score",[2]; non-dependent lung regions,0 (0)
same,"inflammatory infiltration, histopathological score",[2]; non-dependent lung regions,3.8 (1.4)
same,"interstitial edema, histopathological score",[2]; non-dependent lung regions,0.9 (1.1)
same,"microatelectasis, histopathological score",[2]; non-dependent lung regions,3.8 (1.4)
same,"overdistension, histopathological score",[2]; non-dependent lung regions,4.1 (0.9)
same,post-mortem macroscopic and histologic lung injury,"[2]; vs CTRL Group (2), sustained lung injury in both groups",trend towards a less pronounced damage
same,CO (cardiac output),[3]; [6],3.2 L/min
same,CVP (central venous pressure),[3]; [6],11 mmHg
same,EVLW (extravascular lung water content),[3]; [6],12 mL/kg
same,MAP (mean arterial pressure),[3]; [6],61 mmHg
same,MPAP (mean pulmonary arterial pressure),[3]; [6],33 mmHg
same,NA (noradrenaline dosage required for hemodynamic stability),[3]; [6],0.2 µg/kg/min
same,PaCO2 (arterial partial pressure of carbon dioxide),[3]; [6],43 mmHg
same,Pendinsp (end-inspiratory pressure),[3]; [6],22 cmH2O
same,RR (respiratory rate),[3]; [6],34 min⁻¹
same,CO (cardiac output),[3]; [7],3.7 L/min
same,CVP (central venous pressure),[3]; [7],13 mmHg
same,EVLW (extravascular lung water content),[3]; [7],13 mL/kg
same,MAP (mean arterial pressure),[3]; [7],66 mmHg
same,MPAP (mean pulmonary arterial pressure),[3]; [7],30 mmHg
same,NA (noradrenaline dosage required for hemodynamic stability),[3]; [7],0.8 µg/kg/min
same,PaCO2 (arterial partial pressure of carbon dioxide),[3]; [7],43 mmHg
same,Pendinsp (end-inspiratory pressure),[3]; [7],19 cmH2O
same,RR (respiratory rate),[3]; [7],32 min⁻¹
same,CO (cardiac output),[3]; [8],4.5 L/min
same,CVP (central venous pressure),[3]; [8],11 mmHg
same,EVLW (extravascular lung water content),[3]; [8],10 mL/kg
same,MAP (mean arterial pressure),[3]; [8],90 mmHg
same,MPAP (mean pulmonary arterial pressure),[3]; [8],22 mmHg
same,NA (noradrenaline dosage required for hemodynamic stability),[3]; [8],0 µg/kg/min
same,PaCO2 (arterial partial pressure of carbon dioxide),[3]; [8],45 mmHg
same,RR (respiratory rate),[3]; [8],29 min⁻¹
same,Pendinsp (end-inspiratory pressure),"[3]; Baseline, healthy state before LPS and inhalation",14 cmH2O
same,CO (cardiac output),[3]; [9],4.5 L/min
same,CVP (central venous pressure),[3]; [9],10 mmHg
same,EVLW (extravascular lung water content),[3]; [9],11 mL/kg
same,MAP (mean arterial pressure),[3]; [9],100 mmHg
same,MPAP (mean pulmonary arterial pressure),[3]; [9],23 mmHg
same,NA (noradrenaline dosage required for hemodynamic stability),[3]; [9],0 µg/kg/min
same,PaCO2 (arterial partial pressure of carbon dioxide),[3]; [9],35 mmHg
same,Pendinsp (end-inspiratory pressure),[3]; [9],22 cmH2O
same,RR (respiratory rate),[3]; [9],9 min⁻¹
same,Raw (airway resistance),"[3]; pig, in vivo",10 cmH2O L^−1s^−1 and 12 cmH2O L^−1s^−1 and 11 cmH2O L^−1s^−1
same,plasma level of IL-6,[4],less affected
same,plasma level of TNF-α,[4],less affected

# From patent publication US20170014472A1, “ATTENUATION OF INTRAPULMONARY INFLAMMATION” (APEPTICO FORSCHUNG UND E[…], priority 2014, published 2017)
